26 compounds from PMC5491650, “Structure-Activity Relationships of Pentacyclic Triterpenoids as Potent and Selective Inhibitors against Human Carboxylesterase 1” (Frontiers in Pharmacology, 2017) can be followed below.

One may read the IC50 as the concentration needed to halve the response being measured.

The target of one assay is T1, hCE1 (Homo sapiens, UniProt P23141).
T1 sequence (P23141 18-567): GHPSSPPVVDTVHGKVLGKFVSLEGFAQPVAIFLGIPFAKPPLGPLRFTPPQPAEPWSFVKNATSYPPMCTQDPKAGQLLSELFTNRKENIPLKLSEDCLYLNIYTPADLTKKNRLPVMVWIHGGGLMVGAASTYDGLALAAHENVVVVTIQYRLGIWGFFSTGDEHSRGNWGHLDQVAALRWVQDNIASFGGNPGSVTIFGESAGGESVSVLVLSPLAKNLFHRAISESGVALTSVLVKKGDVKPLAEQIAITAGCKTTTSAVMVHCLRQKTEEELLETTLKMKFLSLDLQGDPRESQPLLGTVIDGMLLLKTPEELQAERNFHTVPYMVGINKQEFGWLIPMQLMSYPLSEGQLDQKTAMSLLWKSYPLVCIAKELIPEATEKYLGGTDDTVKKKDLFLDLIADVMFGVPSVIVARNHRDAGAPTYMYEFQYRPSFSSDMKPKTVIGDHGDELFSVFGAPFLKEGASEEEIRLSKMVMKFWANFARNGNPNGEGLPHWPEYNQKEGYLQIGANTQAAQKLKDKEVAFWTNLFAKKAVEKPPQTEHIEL
As to the kind of experiment: hCE1 inhibition assay, DME hydrolysis in human liver microsomes.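 Further: carboxylesterase inhibition read out as probe hydrolysis, with DME serving as hCE1 substrate and DDAB as hCE2 substrate, in DMSO below 2% (V/V).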 The assay is classed as biochemical. More on the design: tissue Celsis (Shanghai, China); host or cells: human liver microsomes (HLM). For orientation: Microsomes from liver hold many membrane-bound enzymes, among them those of drug oxidation.

A further assay deals with T2, hCE2 (Homo sapiens, UniProt O00748).
T2 construct: tissue Celsis (Shanghai, China); host or cells: human liver microsomes (HLM)
T2 sequence (O00748 27-559): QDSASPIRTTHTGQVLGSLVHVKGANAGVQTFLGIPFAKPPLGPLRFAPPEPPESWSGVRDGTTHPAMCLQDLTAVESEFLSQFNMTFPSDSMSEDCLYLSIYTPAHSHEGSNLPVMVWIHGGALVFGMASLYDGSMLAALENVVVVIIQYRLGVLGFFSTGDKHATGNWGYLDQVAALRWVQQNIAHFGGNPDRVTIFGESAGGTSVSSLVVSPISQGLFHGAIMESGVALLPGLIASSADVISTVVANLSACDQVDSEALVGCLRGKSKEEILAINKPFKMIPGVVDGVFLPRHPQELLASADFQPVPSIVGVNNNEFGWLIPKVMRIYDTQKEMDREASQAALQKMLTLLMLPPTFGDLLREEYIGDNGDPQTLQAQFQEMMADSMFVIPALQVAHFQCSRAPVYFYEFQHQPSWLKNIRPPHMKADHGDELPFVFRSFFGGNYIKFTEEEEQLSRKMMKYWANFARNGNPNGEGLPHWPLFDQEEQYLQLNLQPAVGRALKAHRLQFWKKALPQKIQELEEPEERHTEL
Description: hCE2 inhibition assay, DDAB hydrolysis in human liver microsomes. The assay is classed as biochemical.

[1] abbreviates: DME as probe substrate, HLM, averages of at least three experiments, read-out: IC50 (hCE1).
Where [2] appears, read: log of the experimental IC50 in μM, used for 3D-QSAR.
[3] abbreviates: DDAB as probe substrate, HLM, averages of at least three experiments, read-out: IC50 (hCE2).

Where two headings read alike, the source gives them in different places.

Description for hCE1: (§1) All fluorescence-based assays were performed on Synergy H^1 Hybrid Multi-Mode Microplate Reader (BioTek, USA).
(§2) The inhibitory effects toward CEs were assayed using DME and DDAB as the specific probe substrates for hCE1 and hCE2, respectively. […] Control incubations without BNPP were also performed. After incubation, ice-cold acetonitrile (equal volume of incubation mixture, 200 μL) was added to terminate the reaction. The mixture was then centrifuged at 20,000 g for 20 min at 4°C. All these compounds dissolved in DMSO, and the final concentration of DMSO was <2% (V/V). Aliquots of the supernatant were then taken for further microplate reader analyses. […] First, each of the potential esterase inhibitors was pre-incubated with HLM at 37°C for 10 min with shaking in microplate reader. Then DME was added to start the reaction. After incubation at 37°C for 10 min in a shaking bath, LDR (equal volume of incubation mixture, 50 μL) was added to terminate the reaction, and luminescence measurements were conducted as described above.
Description for hCE2: as §1, §2

`CC1CCC2(C(=O)O)CCC3(C)C(=CCC4C5(C)CCC(=O)C(C)(C)C5CCC43C)C2C1C` (centres unmarked) [Compound 21, 3-oxo-urs-12-en-28-oic acid]: the IC50 was determined as 0.037 µM on hCE1 (setting [1]) and 9.56 µM on hCE2 (setting [3]). For the same compound, on hCE1 (setting [2]), the “Observed Log(IC50_hCE1)” value is on record as -1.4318 μM.
For the compound `C[C@H]1[C@H](C)CC[C@]2(C)CC[C@]3(C)C(=CC(=O)[C@@H]4[C@@]5(C)CC[C@@H](O)[C@](C)(C(=O)O)[C@@H]5CC[C@]43C)[C@H]12` [Compound 6, 11-keto-β-boswellic acid], the IC50 on hCE1 (setting [1]) is 124 µM. The “Observed Log(IC50_hCE1)” value on hCE1 (setting [2]) was 2.092 μM.
Regarding `C[C@H]1[C@H](C)CC[C@]2(C(=O)O)CC[C@]3(C)C(=CC[C@@H]4[C@@]5(C)CC[C@H](O)C(C)(C)[C@@H]5CC[C@]43C)[C@H]12` [Compound 2, ursolic acid], the IC50 at hCE1 (setting [1]) came out at 0.24 µM. The “Observed Log(IC50_hCE1)” value at hCE1 (setting [2]) was -0.6198 μM.
As for `COC(=O)C12CCC(C)(C)CC1C1=CCC3C4(C)CCC(O)C(C)(C)C4CCC3(C)C1(C)CC2` (stereo not drawn) [Compound 17, 3β-hydroxy-olean-12-en-28-oic acidmethyl ester], the concentration for half-maximal inhibition (IC50) at hCE1 (setting [1]) was 6.23 µM; at hCE2 (setting [3]), 5.7 µM. In addition, the “Observed Log(IC50_hCE1)” value at hCE1 (setting [2]) was 0.7945 μM.
Regarding `CC1(C)CCC2(C(=O)O)C(O)CC3(C)C(=CCC4C5(C)CC(O)C(O)C(C)(CO)C5CCC43C)C2C1` (centres unmarked) [Compound 3, polygalacic acid], the IC50 at hCE1 (setting [1]) is 64.7 µM; at hCE2 (setting [3]), above 100 µM. The “Observed Log(IC50_hCE1)” value on hCE1 (setting [2]) was 1.811 μM.
As to `CC1=C(O)C(=O)C=C2C1=CC=C1[C@@]2(C)CC[C@@]2(C)[C@@H]3C[C@](C)(C(=O)O)CC[C@]3(C)CC[C@]12C` [Compound 7, celastrol], the IC50 on hCE1 (setting [1]) was determined as 4.43 µM. The “Observed Log(IC50_hCE1)” value at hCE1 (setting [2]) was 0.6464 μM.
With `CC1(C)CCC2(C(=O)O)CCC3(C)C(=CCC4C5(C)CCC(=O)C(C)(C)C5CCC43C)C2C1` (centres unmarked) [Compound 15, 3-oxo-olean-12-en-28-oic acid], on hCE1, the “Observed Log(IC50_hCE1)” value was -0.8861 μM and the Selectivity came out at 123.07. On hCE1 (setting [1]), the IC50 was 0.13 µM. Besides, the IC50 on hCE2 (setting [3]) is 16.1 µM.
For the compound `CC1(C)CC[C@]2(C(=O)O)CC[C@]3(C)C(=CC[C@@H]4[C@@]5(C)CC[C@H](O)C(C)(C)[C@@H]5CC[C@]43C)[C@@H]2C1` [Compound 1, oleanolic acid], the IC50 at hCE1 (setting [1]) amounted to 0.28 µM. For the same compound, on hCE1 (setting [2]), the “Observed Log(IC50_hCE1)” value is listed as -0.5528 μM.
`O=[N+]([O-])c1ccc(OP(=O)(O)Oc2ccc([N+](=O)[O-])cc2)cc1` [Compound 28, Bis-p-nitrophenyl phosphate, reference compound]: the IC50 on hCE1 (setting [1]) worked out at 0.031 µM.
`CC1(C(=O)O)CCC2(C)CCC3(C)C(=CCC4C5(C)CCC(O)C(C)(C)C5CCC43C)C2C1` (centres unmarked) [Compound 26] came in with an IC50 at hCE1 (IC50 (hCE1), DME as probe substrate, HLM, averages of at least three experiments) of 8.94 µM. Also, at hCE1 (setting [2]), the “Observed Log(IC50_hCE1)” value was 0.9513 μM.
Consider `CC(=O)OC1CCC2(C)C(CCC3(C)C2CC=C2C4CC(C)(C)CCC4(C(=O)O)CCC23C)C1(C)C` (stereo not drawn) [Compound 19, 3β-O-acetyl-olean-12-en-28-oic acid], for which the IC50 came to 0.19 µM on hCE1 (setting [1]) and 10.2 µM at hCE2 (setting [3]). For the same compound, the “Observed Log(IC50_hCE1)” value at hCE1 (setting [2]) was -0.7212 μM.
For `CC1(C(=O)O)CCC2(C)CCC3(C)C(=CCC4C5(C)CCC(OC(=O)CCC(=O)O)C(C)(C)C5CCC43C)C2C1` (stereo not drawn) [Compound 27, 3β-O-(β-carboxypropionyl)-olean-12-en-30-oic acid], the IC50 was 6.94 µM on hCE1 (setting [1]) and 3.16 µM at hCE2 (setting [3]). The “Observed Log(IC50_hCE1)” value on hCE1 (setting [2]) came out at 0.8414 μM.
On to `C=C(CCC(C(=O)O)C1C(O)CC2(C)C3=C(CCC12C)C1(C)CCC(OC(C)=O)C(C)(C)C1CC3)C(C)C` (centres unmarked) [Compound 10], for which the IC50 on hCE1 (setting [1]) was 21.7 µM. The “Observed Log(IC50_hCE1)” value on hCE1 (setting [2]) was found to be 1.337 μM.
Consider `COC(=O)C12CCC(C)C(C)C1C1=CCC3C4(C)CCC(=O)C(C)(C)C4CCC3(C)C1(C)CC2` (centres unmarked) [Compound 24, 3-oxo-urs-12-en-28-oic acid methyl ester], for which the IC50 on hCE1 (setting [1]) is 0.9 µM; at hCE2 (setting [3]), above 100 µM. In addition, on hCE1 (setting [2]), the “Observed Log(IC50_hCE1)” value is -0.04576 μM.
The like results for `C=C(CCC(C(=O)O)C1C(O)CC2(C)C3=CCC4C(C)(CCC(OC(C)=O)C4(C)C)C3=CCC12C)C(C)C` (centres unmarked) [Compound 11] were, in that order, 27.6 µM, above 100 µM and 1.441 μM.
`C[C@H](CC(=O)C[C@@H](C)[C@H]1C[C@H](O)[C@@]2(C)C3=C(C(=O)C[C@]12C)[C@@]1(C)CCC(=O)C(C)(C)[C@@H]1C[C@@H]3O)C(=O)O` [Compound 13]: the IC50 at hCE1 was above 400 µM; against hCE2, above 100 µM.
As to `CC(C)=CCCC(C)(O)C1CCC2(C)C1C(O)CC1C3(C)CCC(O)C(C)(C)C3C(O)CC12C` (centres unmarked) [Compound 9], the IC50 at hCE1 (setting [1]) was above 500 µM.
Take `C=C(CCC(C(=O)O)C1C(O)CC2(C)C3=CCC4C(C)(C)C(=O)CCC4(C)C3=CCC12C)C(C)C` (centres unmarked) [Compound 12]: the IC50 is 58.6 µM at hCE1 (setting [1]) and above 100 µM on hCE2 (setting [3]). Further, at hCE1 (setting [2]), the “Observed Log(IC50_hCE1)” value is on record as 1.7679 μM.
In the case of `CC(C)=CCCC(C)(O)C1CCC2(C)C1C(O)CC1C3(C)CCC(O)C(C)(C)C3CCC12C` (centres unmarked) [Compound 8], on hCE1 (setting [1]), the IC50 was above 500 µM.
With `CC1(C)CCC2(CO)CCC3(C)C(=CCC4C5(C)CCC(O)C(C)(C)C5CCC43C)C2C1` (stereo not drawn) [Compound 16, 3β-olean-12-ene-3,28-diol], the IC50 at hCE1 (setting [1]) is 2.41 µM; on hCE2 (setting [3]), 6.12 µM. For the same compound, on hCE1 (setting [2]), the “Observed Log(IC50_hCE1)” value was 0.382 μM.
With `C[C@H](CC(=O)C[C@@H](C)[C@H]1CC(=O)[C@@]2(C)C3=C(C(=O)C[C@]12C)[C@@]1(C)CC[C@H](O)C(C)(C)[C@@H]1C[C@@H]3O)C(=O)O` [Compound 14], the IC50 was above 400 µM on hCE1 (setting [1]) and above 100 µM at hCE2 (setting [3]).
For `C[C@H]1[C@H](C)CC[C@]2(C)CC[C@]3(C)C(=CC[C@@H]4[C@@]5(C)CC[C@@H](O)[C@](C)(C(=O)O)[C@@H]5CC[C@]43C)[C@H]12` [Compound 5, β-boswellic acid], the IC50 at hCE1 (setting [1]) was above 400 µM.
For the compound `COC(=O)C12CCC(C)C(C)C1C1=CCC3C4(C)CCC(O)C(C)(C)C4CCC3(C)C1(C)CC2` (stereo not drawn) [Compound 23, 3β-hydroxy-urs-12-en-28-oic acid methyl ester], the IC50 worked out at 1.83 µM at hCE1 (setting [1]) and 11.9 µM at hCE2 (setting [3]). For the same compound, the “Observed Log(IC50_hCE1)” value at hCE1 (setting [2]) is 0.2625 μM.
The like results for `CC1(C)CCC2(C(N)=O)CCC3(C)C(=CCC4C5(C)CCC(O)C(C)(C)C5CCC43C)C2C1` (stereo not drawn) [Compound 18, 3β-hydroxy-olean-12-en-28-amide] were, in that order, 3.21 µM, 4.11 µM and 0.5065 μM.
Consider `COC(=O)C12CCC(C)C(C)C1C1=CC(=O)C3C4(C)CCC(=O)C(C)(C)C4CCC3(C)C1(C)CC2` (centres unmarked) [Compound 25, 3,11-dioxo-urs-12-en-28-oic acid methyl ester], for which the IC50 came out at 33.2 µM on hCE1 (setting [1]) and 11.9 µM on hCE2 (setting [3]). Moreover, the “Observed Log(IC50_hCE1)” value at hCE1 (setting [2]) is 1.521 μM.
`CC1(C)[C@@H](O)CC[C@]2(C)[C@H]3C(=O)C=C4[C@@H]5C[C@@](C)(C(=O)O)CC[C@]5(C)CC[C@@]4(C)[C@]3(C)CC[C@@H]12` [Compound 4, glycyrrhetic acid]: on hCE1 (setting [1]), the IC50 is 13 µM. Moreover, the “Observed Log(IC50_hCE1)” value on hCE1 (setting [2]) worked out at 1.1126 μM.
